According to publication PMC9247985, “Accessing Diverse Pyridine-Based Macrocyclic Peptides by a Two-Site Recognition Pathway” (Journal of the American Chemical Society, 2022):
Where a SMILES comes first, the peptide text is derived from it. Where no end group is shown, it is not given here. The star is where a group is joined. 5FAM = O=C1OC2(c3ccc(O)cc3Oc3cc(O)ccc32)c2ccc(C(=O)*)cc21

tested on: MroB; test: not given; conditions: read-out: IC50 MroB; SEM

Molecule | IC50 [µM]
CC[C@H](C)[C@H](NC(=O)[C@H](CC(=O)O)NC(=O)[C@H](CC(C)C)NC(=O)[C@H](CC(=O)O)NC(=O)[C@@H](N)CO)C(=O)N[C@H](C(=O)N[C@@H](CC(=O)O)C(=O)N[C@@H](CC(C)C)C(=O)N[C@@H](CC(=O)O)C(=O)N[C@@H](CC(C)C)C(=O)N[C@@H](C)C(=O)N[C@H](C(=O)N[C@@H](CC(=O)O)C(=O)N[C@@H](CCC(=O)O)C(=O)N[C@@H](CCC(=O)O)C(=O)N[C@@H](CC(C)C)C(=O)N[C@@H](C)C(=O)N[C@@H](C)C(=O)N[C@@H](CC(C)C)C(=O)N[C@@H](CO)C(=O)N[C@H](C(=O)NCC(=O)NCC(=O)N[C@@H](CC(C)C)C(=O)NCC(=O)N[C@@H](CC(N)=O)C(=O)N[C@H](C(=O)N[C@@H](CCC(=O)O)C(=O)N[C@H](C(=O)NCC(=O)N[C@@H](C)C(=O)N[C@@H](CO)C(=O)NCC(=O)N[C@@H](Cc1c[nH]c2ccccc12)C(=O)N[C@@H](CC(C)C)C(=O)NCC(=O)N[C@@H](CO)C(=O)N[C@@H](Cc1c[nH]c2ccccc12)C(=O)N[C@H](C(=O)N[C@H](C(=O)OC)[C@@H](C)CC)C(C)C)C(C)C)[C@@H](C)O)C(C)C)C(C)C)C(C)C [Δ12MroA1-COOMe] (H-SDLDIVDLDLAVDEELAALSVGGLGNTEVGASGWLGSWVI-OMe) | 4.2 ± 1.7

tested on: MroB/C; test: MroB/C dehydration (Dha formation) of in vitro translated MroA2 variants, MALDI-TOF-MS; type: biochemical, Micromonospora rosaria; conditions: Table S6, MroA2 multi-site variants, 2 μM MBP-MroB, 2 μM MBP-MroC, 1 h room temperature
Method: in 2 mM NaOAc pH 5.2, and the concentration was assayed using 260 nm absorbance. This tRNA Glu (CUC) was t he n used in the MroBC-catalyzed dehydration assay.
In vitro translation and enzymati c as s ays (dehydration and cyclization). In a 0.65 mL protein low-binding Eppendorf tube placed on ice, 0.75 μL of purified mroA variant template DNA was mixed with 0.75 μL of Solution B and 1 μL of Solution A of PURExpress I n vi t ro Protein Synthesis Kit (E6800L) purchased from NEB (total volume of reaction is 2.5 μL ). The translation reactions were performed at 37°C for 1 hon an aluminum block.
For a full MroBCD substrate scope investigation, a total translation volume for each variant of 7.5 μL was performed.
1.5 μL of 90 mM i odoacet am i de (IAA) was added to quench d ithiothreitol (DTT) in the translation reaction mixture, a thiol -based nucleophile that can react with electrophilic dehydroalanines generated from MroBC-cat al yzed dehydration assays. […]
In the 6 μL part, 10.2 μL of the enzyme mix containing enzymes and cofactors was added along with 1.8 μ L 90 mM ATP (pH 7.5) ,which wasused to initiate the reaction . The enzyme mix was made by adding these components in the following order: HEPES pH 7.5, MgCl2, glutamate, T. bispora tRNAGl u(CUC), thermostable inorganic pyrophosphatase (TIPP), TEV (L56V/S135G/S219V) (w/w ratio with a total amount of MBP-tagged protein = 1: 10), MBP-MroB, MBP-MroC, and T. bispora GluRS. The enzyme mix was incubated 25 min at room temper at ure before adding to the translation product to facilitate in situ TEV -catalyzed cleavage of MBP from MBP -MroB and MBP - MroC. The enzymatic reaction proceeded for 1 h at room temperature. Overal l , the concentration of components in the 18 μL reaction mix is as follows : 50 mM HEPES pH 7.5, 5 mM MgCl2, gl utamate 1 mM, 3 μM T. bi s por a tRNAGlu, 1 μM T. bispora GluRS, 2 μM MBP-MroB, 2 μM MBP-MroC, […], 0.027 U/μL TIPP, and 5 mM IAA. In addition, the […] was incubated with the same buffer lacking enzymes and tRNA as a translation control.
After incubation, the enzyme reaction (18 μ L) was split into two equal parts. One part was treated with MBP-MroD such that the final concentration of MBP-MroD is 3 μM, and the other part was added the same volume but with buffer lacking MBP-MroD (50 mM HEPES, 300 mM NaCl, 2.5% glycerol, 0.5 mM TCEP).The reaction further proceeded for 1.5 h at room temperature. All reaction mixture was then desalted with solid- phase extraction using Ziptip with 0.6 μL C18 resin (EMD Milli por e ) and crystallized on an MTP384 steel target plate using either sa t ur at e d sina pi c ac i d or 50 mg/mL Super DHB [ dissolved in 60% acetonitrile and 0.1% trifluoroacetic acid (TFA )] as the matrix. T he crystallized spots were then analyzed using MALDI-TOF-MS (Bruker Ultraflex). The external standard for MALDI - TOF-MS analysis is ProteoMass Peptide and Protein MALDI -MS Calibration Kit ( Si g ma ) In this work, TEV was used in every variant tested. […]

Molecule | Dha formation
SGDAMRWRSWLI [53-A8R, Arg variant of multi-site variant 53] | 2 Dha
SGGYRPRSWLI [38-H7R, Arg variant of multi-site variant 38] | 2 Dha
SGHYKPQRSWLI [55-A8R, Arg variant of multi-site variant 55] | 2 Dha
SGIAKEVRSWLI [47-Q8R, Arg variant of multi-site variant 47] | 2 Dha
SGKALERSWLI [29-F7R, Arg variant of multi-site variant 29] | M ix of 1, 2 Dha
SGLQHGKRSWLI [52-Y8R, Arg variant of multi-site variant 52] | 2 Dha
SGQGRNRSWLI [24-V7R, Arg variant of multi-site variant 24] | 2 Dha
SGREFARSWLI [35-N7R, Arg variant of multi-site variant 35] | 2 Dha
SGRYAGRSWLI [39-W7R, Arg variant of multi-site variant 39] | 2 Dha
SGYDRQRSWLI [56-Y7R, Arg variant of multi-site variant 56] | 2 Dha
SGYHFHNRSWLI [54-V8R, Arg variant of multi-site variant 54] | 2 Dha

molecular target: MBP-MroD (Micromonospora rosaria, UniProt A0A136PPB2); test: biochemical; conditions: not given
Source text: Experiments were done in triplicates. Stock
(1 picture or pasted object on this page, not shown here)

MBP-MroD, sequence (A0A136PPB2 1-366): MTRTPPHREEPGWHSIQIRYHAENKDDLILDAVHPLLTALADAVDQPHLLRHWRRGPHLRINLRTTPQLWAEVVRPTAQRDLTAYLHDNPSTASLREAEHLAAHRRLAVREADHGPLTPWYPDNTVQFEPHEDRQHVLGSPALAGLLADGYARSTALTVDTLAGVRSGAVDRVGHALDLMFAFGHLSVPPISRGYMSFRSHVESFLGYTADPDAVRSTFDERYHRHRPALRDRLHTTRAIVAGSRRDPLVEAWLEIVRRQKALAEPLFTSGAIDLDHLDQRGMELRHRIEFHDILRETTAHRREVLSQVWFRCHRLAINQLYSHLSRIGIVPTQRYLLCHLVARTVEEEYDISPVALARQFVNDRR

Molecule | Kd [µM]
CC[C@H](C)[C@H](NC(=O)[C@@H](NC(=O)[C@H](Cc1c[nH]c2ccccc12)NC(=O)[C@H](CO)NC(=O)CNC(=O)[C@H](CC(C)C)NC(=O)[C@H](Cc1c[nH]c2ccccc12)NC(=O)CNC(=O)[C@H](CO)NC(=O)[C@H](C)NC(=O)CNC(=O)[C@@H](NC(=O)[C@H](CCC(=O)O)NC(=O)[C@@H](NC(=O)[C@H](CC(N)=O)NC(=O)CNC(=O)[C@H](CC(C)C)NC(=O)CNC(=O)CNC(=O)[C@@H](NC(=O)[C@H](CO)NC(=O)[C@H](CC(C)C)NC(=O)[C@H](C)NC(=O)[C@H](C)NC(=O)[C@H](CC(C)C)NC(=O)[C@H](CCC(=O)O)NC(=O)[C@H](CCC(=O)O)NC(=O)[C@H](CC(=O)O)NC(=O)[C@@H](NC(=O)[C@H](C)NC(=O)[C@H](CC(C)C)NC(=O)[C@H](CC(=O)O)NC(=O)[C@H](CC(C)C)NC(=O)[C@H](CC(=O)O)NC(=O)[C@@H](NC(=O)[C@@H](NC(=O)[C@H](CC(=O)O)NC(=O)[C@H](CC(C)C)NC(=O)[C@H](CC(=O)O)NC(=O)[C@H](CO)NC(=O)c1ccc2c(c1)C(=O)OC21c2ccc(O)cc2Oc2cc(O)ccc21)[C@@H](C)CC)C(C)C)C(C)C)C(C)C)[C@@H](C)O)C(C)C)C(C)C)C(=O)O [fluorescein-Δ12MroA1] (5FAM-SDLDIVDLDLAVDEELAALSVGGLGNTEVGASGWLGSWVI-OH) | ~0.012

molecular target: MroD (Micromonospora rosaria, UniProt A0A136PPB2); test: not given; conditions: read-out: IC50 MroD; SEM
Sequence (A0A136PPB2 entry or part of it): as the sequence (A0A136PPB2 1-366) above

Molecule | IC50 [µM]
CC[C@H](C)[C@H](NC(=O)[C@H](CC(=O)O)NC(=O)[C@H](CC(C)C)NC(=O)[C@H](CC(=O)O)NC(=O)[C@@H](N)CO)C(=O)N[C@H](C(=O)N[C@@H](CC(=O)O)C(=O)N[C@@H](CC(C)C)C(=O)N[C@@H](CC(=O)O)C(=O)N[C@@H](CC(C)C)C(=O)N[C@@H](C)C(=O)N[C@H](C(=O)N[C@@H](CC(=O)O)C(=O)N[C@@H](CCC(=O)O)C(=O)N[C@@H](CCC(=O)O)C(=O)N[C@@H](CC(C)C)C(=O)N[C@@H](C)C(=O)N[C@@H](C)C(=O)N[C@@H](CC(C)C)C(=O)N[C@@H](CO)C(=O)N[C@H](C(=O)NCC(=O)NCC(=O)N[C@@H](CC(C)C)C(=O)NCC(=O)N[C@@H](CC(N)=O)C(=O)N[C@H](C(=O)N[C@@H](CCC(=O)O)C(=O)N[C@H](C(=O)NCC(=O)N[C@@H](C)C(=O)N[C@@H](CO)C(=O)NCC(=O)N[C@@H](Cc1c[nH]c2ccccc12)C(=O)N[C@@H](CC(C)C)C(=O)NCC(=O)N[C@@H](CO)C(=O)N[C@@H](Cc1c[nH]c2ccccc12)C(=O)N[C@H](C(=O)N[C@H](C(=O)OC)[C@@H](C)CC)C(C)C)C(C)C)[C@@H](C)O)C(C)C)C(C)C)C(C)C [Δ12MroA1-COOMe] (H-SDLDIVDLDLAVDEELAALSVGGLGNTEVGASGWLGSWVI-OMe) | 0.4 ± 0.06
SDLDIVDLDLAVDEELAALSVGGLGNTEVGA [Δ12MroA1 leader] | 16 ± 4.4
SDLDIVDLDLAVDEELAALSVGGLGNTEVGASGWLGSGVI [Δ12MroA1-W7G] | 2.4 ± 0.3
SDLDIVDLDLAVDEELAALSVGGLGNTEVGASGWLGSWGI [Δ12MroA1-V8G] | 1.7 ± 0.4
SDLDIVDLDLAVDEELAALSVGGLGNTEVGASGWLGSWVG [Δ12MroA1-I9G] | 0.91 ± 0.09
SDLDIVDLDLAVDEELAALSVGGLGNTEVGASGWLGSWVI [Δ12MroA1] | 0.09 ± 0.02
